Columns and labels:
Assay in all cases: relative viability (nuclei count vs DMSO), 5 days (fraction); higher = more cells survive
[1] = compound: Cc1ccc(NC(=O)c2ccc(CN3CCN(C)CC3)cc2)cc1Nc1nccc(-c2cccnc2)n1 [Imatinib] + CS(=O)(=O)N1CCN(Cc2cc3nc(-c4cccc5[nH]ncc45)nc(N4CCOCC4)c3s2)CC1 [Pictilisib] (partner 1 µM)
Summary of the method: (§1)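 Relative viability equals treated-well nuclei counts divided by vehicle-well nuclei counts. Counts came from 4× images of lung cancer cell lines grown in 1536-well plates for 5 days after pin-tool dosing on the day after seeding. Dosing used one drug alone or a fixed anchor-drug dose plus five library-drug doses (not always all listed) in √10 steps, and values are medians of duplicate plates.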

[2] = compound: Cc1ccc(NC(=O)c2ccc(CN3CCN(C)CC3)cc2)cc1Nc1nccc(-c2cccnc2)n1 [Imatinib] + CC(C)C[C@H](NC(=O)[C@H](Cc1ccccc1)NC(=O)c1cnccn1)B(O)O [Bortezomib] (partner 0.002 µM)
Summary of the method: as §1

[3] = compound: Cc1ccc(NC(=O)c2ccc(CN3CCN(C)CC3)cc2)cc1Nc1nccc(-c2cccnc2)n1 [Imatinib] + CS(=O)(=O)CCNCc1ccc(-c2ccc3ncnc(Nc4ccc(OCc5cccc(F)c5)c(Cl)c4)c3c2)o1 [Lapatinib] (partner 2 µM)
Summary of the method: as §1

[4] = compound: Cc1ccc(NC(=O)c2ccc(CN3CCN(C)CC3)cc2)cc1Nc1nccc(-c2cccnc2)n1 [Imatinib] + Nc1nc2[nH]cc(CCc3ccc(C(=O)N[C@@H](CCC(=O)O)C(=O)O)cc3)c2c(=O)[nH]1 [Pemetrexed] (partner 0.2 µM)
Summary of the method: as §1

Cell Line | relative viability ([1]; first compound 0.02 µM) | relative viability ([1]; first compound 0.06325 µM) | relative viability ([1]; first compound 0.2 µM) | relative viability ([1]; first compound 0.6325 µM) | relative viability ([1]; first compound 2 µM) | relative viability ([2]; first compound 0.02 µM) | relative viability ([2]; first compound 0.06325 µM) | relative viability ([2]; first compound 0.2 µM) | relative viability ([2]; first compound 0.6325 µM) | relative viability ([3]; first compound 0.02 µM) | relative viability ([3]; first compound 0.06325 µM) | relative viability ([3]; first compound 0.2 µM) | relative viability ([3]; first compound 0.6325 µM) | relative viability ([3]; first compound 2 µM) | relative viability ([4]; first compound 0.02 µM) | relative viability ([4]; first compound 0.06325 µM) | relative viability ([4]; first compound 0.2 µM) | relative viability ([4]; first compound 0.6325 µM) | relative viability ([4]; first compound 2 µM) | relative viability ([2]; first compound 2 µM)
COR-L 105 | 0.37 | 0.372 | 0.508 | 0.406 | 0.385 | 1.08 | 0.871 | 0.73 | 0.636 | 0.398 | 0.361 | 0.351 | 0.368 | 0.385 | 1.33 | 1.27 | 1.13 | 1.06 | 0.983 | –
NCI-H2405 | 0.482 | – | 0.428 | 0.353 | 0.52 | – | 0.857 | 0.92 | 1.01 | 1.05 | – | 1.1 | 0.961 | 1.15 | 1.15 | 1.12 | 1.13 | 1.02 | – | 0.983
NCI-H1648 | – | – | – | – | – | – | – | – | – | – | – | – | – | – | 0.722 | 0.642 | 0.721 | 0.543 | 0.673 | –
NCI-H1915 | 0.962 | – | 1.01 | 0.958 | 0.871 | 1.04 | – | – | – | 0.974 | – | 1.04 | 0.952 | – | 0.536 | – | 0.516 | 0.461 | 0.572 | –
SW 1573 | 0.623 | 0.501 | 0.528 | 0.561 | 0.483 | 1.05 | 1.43 | 1.2 | 1.03 | 1.33 | 0.676 | 1.28 | 0.983 | 1.17 | 0.898 | 0.354 | – | 0.86 | 0.811 | 1.12
EKVX | 0.419 | 0.343 | 0.475 | 0.528 | 0.508 | 1.03 | 1.14 | 1.13 | 1.15 | 0.222 | 0.189 | 0.197 | 0.208 | 0.197 | 0.442 | – | 0.509 | 0.391 | – | 1.09
NCI-H358 | 0.292 | – | 0.326 | 0.275 | 0.347 | – | – | – | – | 0.478 | – | 0.445 | 0.448 | 0.392 | 0.167 | 0.169 | 0.189 | 0.171 | 0.178 | –
HCC-78 | 0.208 | 0.177 | 0.198 | 0.207 | 0.2 | 0.33 | 0.34 | 0.599 | 0.358 | 0.924 | 0.467 | 0.676 | – | 1.04 | 0.865 | 0.955 | 0.949 | 0.916 | 0.882 | 0.479
LXF-289 | 0.929 | 0.711 | 0.934 | 0.747 | 0.804 | 1.06 | – | 1.13 | 0.974 | 0.974 | 0.999 | 0.96 | 0.905 | 0.873 | 0.91 | – | 0.88 | 0.893 | 0.923 | 0.955
NCI-H441 | 0.501 | 0.437 | 0.578 | 0.502 | 0.435 | 1.12 | 0.616 | 0.543 | 0.439 | – | – | – | – | – | 0.278 | 0.262 | 0.27 | 0.265 | 0.24 | 0.435
IA-LM | 0.431 | 0.497 | 0.317 | 0.586 | 0.373 | 0.767 | 1.03 | 0.937 | 0.744 | 1.01 | 1.23 | 0.656 | 1.31 | 0.719 | – | – | – | – | – | 0.784
LK-2 | 0.639 | – | 0.581 | 0.488 | 0.572 | – | – | – | – | 1.02 | 0.625 | 1.11 | 0.486 | 0.967 | 0.272 | 0.29 | 0.296 | – | 0.272 | –
NCI-H1944 | 0.353 | – | 0.368 | 0.324 | 0.335 | – | – | – | – | 0.8 | – | 0.991 | 0.853 | 0.771 | 0.881 | 0.642 | 0.695 | 0.656 | 0.561 | –
ChaGo-K-1 | 0.88 | 0.497 | 0.589 | – | – | 0.975 | 1.37 | 1.01 | 1.15 | – | – | – | – | – | 0.263 | – | 0.255 | 0.268 | 0.251 | –
LCLC-103H | 0.67 | – | 0.692 | 0.578 | – | 1.08 | – | – | 1.13 | – | – | – | – | – | 0.458 | 0.445 | 0.472 | 0.464 | 0.504 | –
NCI-H1793 | 0.272 | – | 0.332 | 0.412 | 0.413 | – | – | – | – | 0.841 | – | 0.536 | 0.647 | 0.831 | 0.945 | – | 1 | 1.01 | 0.792 | –
NCI-H1299 | 0.868 | 1.07 | 0.833 | 0.954 | 0.776 | 1.05 | 1.01 | 0.98 | 1.03 | 0.999 | 1 | 0.988 | 0.956 | 0.988 | – | – | – | – | – | 1.03
Calu-6 | 1.18 | 1.11 | 1.16 | 0.887 | 0.89 | 1.13 | 1.06 | 1.01 | 1.08 | 1.24 | 1.23 | 1.27 | 1.16 | 1.13 | – | – | – | – | – | 0.867
NCI-H2023 | 0.247 | 0.191 | 0.224 | 0.213 | 0.217 | 1.08 | 0.425 | 1.16 | 0.925 | – | – | – | – | – | 0.224 | 0.318 | 0.304 | – | 0.27 | 1.02
NCI-H727 | 0.356 | 0.442 | 0.355 | 0.524 | 0.383 | 0.93 | 0.812 | – | 0.868 | 0.626 | 0.637 | 0.84 | 0.769 | 0.801 | – | – | – | – | – | 0.745
SK-MES-1 | 0.366 | 0.323 | 0.39 | 0.357 | 0.379 | – | – | – | – | 0.496 | 0.512 | 0.505 | 0.471 | 0.494 | – | 1.02 | 1.04 | 0.889 | 0.857 | –
NCI-H2170 | 0.292 | 0.334 | 0.283 | 0.254 | 0.26 | – | – | – | – | 0.266 | 0.28 | 0.282 | 0.263 | 0.245 | 0.343 | 0.277 | 0.267 | 0.256 | 0.274 | –
NCI-H1395 | 0.622 | – | 0.6 | 0.651 | 0.605 | – | – | – | – | 0.956 | – | – | 0.988 | 1.19 | 0.807 | – | 0.955 | 1.04 | 0.784 | –
